Data on 22 compounds can be found in paper PMC10350920, “Development of a 2,4-Diaminothiazole Series for the Treatment of Human African Trypanosomiasis Highlights the Importance of Static–Cidal Screening of Analogues” (Journal of Medicinal Chemistry, 2023).

The term EC50 denotes the concentration giving half of the maximal effect.

Data set [1] concerns BSF T. b. brucei “single marker” S427. The experiment in a line: Drug sensitivity assay with bloodstream-form T. brucei. Type of data set: cell-based. The settings on record: for EC50: mean values, number of replicates in parentheses; for reduction (loss, drop off) in potency against T. brucei relative to parent analogue: SAR comparison. The protocol:
(§1) Drug sensitivity assays with BSF T. b. brucei “single marker” S427 and human MRC-5 fibroblasts were conducted as previously described.[43]

A short description of data set [2]: Mammalian cell counter screen (MRC-5). The settings on record: human, MRC-5 fibroblasts; mean values; number of replicates in parentheses. The class given is cell-based, human. The protocol: as §1
For orientation: The purpose of a counterscreen is to sort out artefacts and off-target activity.

The next data set relates to human MRC-5 fibroblasts. The experiment in a line: Mammalian cell counter screen (MRC-5). The class given is cell-based. The settings on record: for SI: selectivity index (EC50 MRC5/EC50 T. brucei). The protocol: as §1
The nature of data set [3]: Mouse liver microsomal intrinsic clearance. The class given is in vitro ADME. As to the method: Test compounds (0.5 μM) were incubated with female CD1 mouse liver microsomes (Xenotech LLC; 0.5 mg mL^–1 50 mM potassium phosphate buffer, pH 7.4), and the reaction started with the addition of excess NADPH (8 mg mL^–1 50 mM potassium phosphate buffer, pH 7.4). Immediately, at 0 min, and then at 3, 6, 9, 15, and 30 min, an aliquot (50 μL) of the incubation mixture was removed and mixed with acetonitrile (100 μL) to stop the reaction. The internal standard was added to all samples, the samples were centrifuged to sediment the precipitated protein, and the plates were then sealed prior to UPLC–MS/MS analysis using a Quattro Premier XE (Waters Corporation, USA). XLfit (IDBS, UK) was used to calculate the exponential decay and consequently the rate constant (k) from the ratio of the peak area of the test compound to the internal standard at each time point. The rate of intrinsic clearance (CLint) of each test compound was then calculated using the following calculation [drawing 3] where V (mL mg^–1 protein) is the incubation volume mg^–1 protein added and the microsomal protein yield is taken as 52.5 mg protein g^–1 liver. Verapamil (0.5 μM) was used as a positive control to confirm acceptable assay performance.
(In general: Microsomes from liver hold many membrane-bound enzymes, among them those of drug oxidation.)

On to `Nc1nc(Nc2ccc(F)c(F)c2)sc1C(=O)COC(C(F)(F)F)C(F)(F)F` [Compound 49, 1-(4-Amino-2-((3,4-diflurorophenyl)amino)thiazol-5-yl)-2-(((1,1,1,3,3,3)-hexafluoropropan-2-yl)oxy)ethanone], for which the EC50 in data set [1] (Trypanosoma brucei) amounted to 20 nM; in data set [2] it was 13000 nM. The compound also yielded an SI with human MRC-5 fibroblasts of 650.
As for `Nc1nc(NC2CCCCC2)sc1C(=O)C1CCCCC1` [Compound 20, (4-Amino-2-(cyclohexylamino)thiazol-5-yl) (cyclohexyl)methanone], the EC50 came out at 150 nM in data set [1] (Trypanosoma brucei) and 41000 nM in data set [2]. Also, in the data set with human MRC-5 fibroblasts, the SI is 273. The “CLint (mouse)” value in data set [3] is 8.9 mL·min/g.
Regarding `CC(C)(F)CC(=O)c1sc(Nc2ccc(F)c(F)c2)nc1N` [Compound 41, 1-(4-Amino-2-((3,4-difluorophenyl)amino)thiazol-5-yl)-3-fluoro-3-methylbutan-1-one], the EC50 in data set [1] (Trypanosoma brucei) came to 560 nM; in data set [2], 46000 nM. In the data set with human MRC-5 fibroblasts, this compound showed an SI of 82.
For `Nc1nc(NC2CCCCC2)sc1C(=O)c1ccc(F)cc1F` [Compound 29, (4-Amino-2-(cyclohexylamino)thiazol-5-yl)(2,4-difluorophenyl)methanone], the EC50 in data set [1] (Trypanosoma brucei) amounted to 50 nM; in data set [2], 6400 nM. This compound yielded an SI in the data set with human MRC-5 fibroblasts of 128. Besides, the “CLint (mouse)” value in data set [3] came to 6.5 mL·min/g.
The matching figures for `Nc1nc(NC2CCCCC2)sc1C(=O)c1c(Cl)cccc1Cl` [Compound 21, (4-Amino-2-(cyclohexylamino)thiazol-5-yl)(2,6-dichlorophenyl)methanone]: 140 nM, 4800 nM, 34 and 4.1 mL·min/g.
Turning to `O=C(c1cnc(NC2CCCCC2)s1)c1c(F)cccc1F` [Compound 33, (2-(Cyclohexylamino)thiazol-5-yl)(2,6-difluorophenyl)methanone], the “reduction (loss, drop off) in potency against T. brucei relative to parent analogue” value in data set [1] is recorded as more than 20 fold. The figures for the EC50 in data set [1] (Trypanosoma brucei) and in data set [2] were 15000 nM and 47000 nM, respectively. The SI in the data set on human MRC-5 fibroblasts turned out to be 3.
Consider “1-(4-Amino-2-((3-(difluoromethoxy)phenyl)amino)thiazol-5-yl)-2-((1,1,1-trifluoropropan-2-yl)oxy)ethanone [Compound 54]”, for which the EC50 in data set [1] was 20 nM; with human MRC-5 fibroblasts, more than 50000 nM. The compound also registered an SI in the data set on human MRC-5 fibroblasts of 2500.
As to `Nc1nc(NC2CCCCC2)sc1C(=O)c1ccccc1C(F)(F)F` [Compound 28], the EC50 stood at 390 nM in data set [1] (Trypanosoma brucei) and 1900 nM in data set [2]. The compound further yielded an SI with human MRC-5 fibroblasts of 5. Besides, the “CLint (mouse)” value in data set [3] came to 14 mL·min/g.
Consider `Nc1nc(NC2CCCCC2)sc1C(=O)C1CCC1` [Compound 19, (4-Amino-2-(cyclohexylamino)thiazol-5-yl)cyclobutylmethanone], for which the EC50 in data set [1] (Trypanosoma brucei) worked out at 370 nM; in data set [2], 13000 nM. Besides, the “CLint (mouse)” value in data set [3] was 21 mL·min/g.
Turning to `COC(C)(C)CC(=O)c1sc(Nc2ccc(F)c(F)c2)nc1N` [Compound 39, 1-(4-Amino-2-((3,4-difluorophenyl)amino)thiazol-5-yl)-3-methoxy-3-methylbutan-1-one], the values for the EC50 in data set [1] (Trypanosoma brucei) and in data set [2] were 210 nM and more than 50000 nM, respectively. This compound also had an SI in the data set on human MRC-5 fibroblasts of 238. For the same compound, the “CLint (mouse)” value in data set [3] worked out at 6.1 mL·min/g.
As for `Nc1nc(NC2CCCCC2)sc1C(=O)c1ccccc1F` [Compound 27, (4-Amino-2-(cyclohexylamino)thiazol-5-yl)(2-fluorophenyl)methanone], in data set [1] (Trypanosoma brucei), the EC50 worked out at 70 nM. Also, the SI in the data set on human MRC-5 fibroblasts is reported as 29. For the same compound, the “CLint (mouse)” value in data set [3] stood at 9.7 mL·min/g.
`CC(C)OCCC(=O)c1sc(Nc2ccc(F)c(F)c2)nc1N` [Compound 45, 1-(4-Amino-2-((3,4-difluorophenyl)amino)thiazol-5-yl)-3-isopropoxypropan-1-one]: the values for the EC50 in data set [1] (Trypanosoma brucei) and in data set [2] were 2600 nM and more than 50000 nM, respectively. Moreover, in the data set with human MRC-5 fibroblasts, the SI amounted to 19.
Turning to `Nc1nc(Nc2ccccc2)sc1C(=O)c1ccc(F)cc1` [Compound 35, (4-Amino-2-(phenylamino)thiazol-5-yl)(4-fluorophenyl)methanone], the EC50 in data set [1] (Trypanosoma brucei) was 190 nM; in data set [2], more than 50000 nM. In the data set with human MRC-5 fibroblasts, the SI is recorded as more than 263. The “CLint (mouse)” value in data set [3] stood at 7.3 mL·min/g.
For the compound `Cc1ccc(C(=O)c2sc(NC3CCCCC3)nc2N)cc1` [Compound 24, (4-Amino-2-(cyclohexylamino)thiazol-5-yl)(p-tolyl)methanone], the results for the EC50 in data set [1] (Trypanosoma brucei) and in data set [2] were 280 nM and more than 50000 nM, respectively. Further, in the data set on human MRC-5 fibroblasts, the SI was more than 179.
For `CC(C)(C)OCC(=O)c1sc(Nc2ccc(F)c(F)c2)nc1N` [Compound 43, 1-(4-Amino-2-((3,4-difluorophenyl)amino)thiazol-5-yl)-2-(tert-butoxy)ethanone], in that order: 100 nM, more than 50000 nM and 500.
As to `Nc1nc(NC2CCCCC2)sc1C(=O)c1ccncc1` [Compound 25, (4-Amino-2-(cyclohexylamino)thiazol-5-yl)(pyridine-4-yl)methanone], the EC50 in data set [1] (Trypanosoma brucei) is 460 nM; in data set [2], 19000 nM. The compound further displayed an SI in the data set with human MRC-5 fibroblasts of 41. In addition, the “CLint (mouse)” value in data set [3] was 4.1 mL·min/g.
Turning to `CC(C)(C)CC(=O)c1sc(Nc2ccc(F)c(F)c2)nc1N` [Compound 40, 1-(4-Amino-2-((3,4-difluorophenyl)amino)thiazol-5-yl)-3,3-dimethylbutan-1-one], the results for the concentration giving a half-maximal response (EC50) in data set [1] (Trypanosoma brucei) and in data set [2] were 150 nM and more than 50000 nM, respectively. The same compound registered an SI with human MRC-5 fibroblasts of more than 333. The “CLint (mouse)” value in data set [3] stood at 4.6 mL·min/g.
With `Nc1nc(NC2CCCCC2)sc1C(=O)c1cc(F)cc(F)c1` [Compound 31, (4-Amino-2-(cyclohexylamino)thiazol-5-yl)(3,5-difluorophenyl)methanone], the EC50 in data set [1] (Trypanosoma brucei) was determined as 160 nM; in data set [2], 3100 nM. Besides, in the data set with human MRC-5 fibroblasts, the SI is listed as 19. Further, the “CLint (mouse)” value in data set [3] came out at 3.6 mL·min/g.
As for `O=C(c1cnc(NC2CCCCC2)s1)C1CCCCC1` [Compound 32, Cyclohexyl(2-(cyclohexylamino)thiazole-5-yl)methanone], the “reduction (loss, drop off) in potency against T. brucei relative to parent analogue” value in data set [1] was more than 20 fold. Besides, the figures for the half-maximal effective concentration (EC50) in data set [1] (Trypanosoma brucei) and in data set [2] were 18000 nM and 49000 nM, respectively. The compound also registered an SI in the data set with human MRC-5 fibroblasts of 3. Besides, in data set [3], the “CLint (mouse)” value was determined as 15 mL·min/g.
For `Nc1nc(Nc2ccc(F)c(F)c2)sc1C(=O)COC(CF)CF` [Compound 48, 1-(4-Amino-2-((3,4-difluorophenyl)amino)thiazol-5-yl)-2-((1,3-difluoropropan-2-yl)oxy)ethanone], the results for the EC50 in data set [1] (Trypanosoma brucei) and in data set [2] were 50 nM and more than 50000 nM, respectively. The compound also gave an SI with human MRC-5 fibroblasts of 1000.
Regarding `Nc1nc(NC2CCCCC2)sc1C(=O)c1ccc(C(F)(F)F)cc1` [Compound 23, (4-Amino-2-(cyclohexylamino)thiazol-5-yl)(4-(trifluoromethyl)phenyl)methanone], the EC50 in data set [1] (Trypanosoma brucei) was found to be 660 nM; in data set [2], 37000 nM. Further, in the data set on human MRC-5 fibroblasts, the SI came to 56. Also, the “CLint (mouse)” value in data set [3] was 1.4 mL·min/g.
Turning to `CCOCC(=O)c1sc(Nc2ccc(F)c(F)c2)nc1N` [Compound 44, 1-(4-Amino-2-((3,4-difluorophenyl)amino)thiazol-5-yl)-2-ethoxyethanone], the EC50 is 150 nM in data set [1] (Trypanosoma brucei) and more than 50000 nM in data set [2]. Also, in the data set on human MRC-5 fibroblasts, the SI was 333.
